Measurements as given in PubChem BioAssay (NCI).
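A five-concentration, 48-hour dose response in 96-well plates underlies each endpoint, interpolated linearly between surrounding concentrations. The concentration for 50% growth inhibition is given as GI50. TGI is the concentration that stops growth completely.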

Key:
Assay in all cases: DTP human tumour cell line panel, 48 h
DLD-1 colon = system: DLD-1 colon
SK-MEL-5 melanoma = system: SK-MEL-5 melanoma
M19-MEL melanoma = system: M19-MEL melanoma
UACC-62 melanoma = system: UACC-62 melanoma
CCRF-CEM leukemia = system: CCRF-CEM leukemia
HT29 colon = system: HT29 colon
MALME-3M melanoma = system: MALME-3M melanoma
NCI-H23 lung = system: NCI-H23 lung
UACC-257 melanoma = system: UACC-257 melanoma
T-47D breast = system: T-47D breast

Row | SMILES | TGI (DLD-1 colon) [µM] | TGI (SK-MEL-5 melanoma) [µM] | TGI (M19-MEL melanoma) [µM] | TGI (UACC-62 melanoma) [µM] | TGI (CCRF-CEM leukemia) [µM] | TGI (HT29 colon) [µM] | TGI (MALME-3M melanoma) [µM] | TGI (NCI-H23 lung) [µM] | TGI (UACC-257 melanoma) [µM] | GI50 (DLD-1 colon) [µM] | GI50 (SK-MEL-5 melanoma) [µM] | GI50 (M19-MEL melanoma) [µM] | GI50 (UACC-62 melanoma) [µM] | GI50 (CCRF-CEM leukemia) [µM] | GI50 (HT29 colon) [µM] | GI50 (MALME-3M melanoma) [µM] | GI50 (NCI-H23 lung) [µM] | GI50 (UACC-257 melanoma) [µM] | TGI (T-47D breast) [µM]
1 | CCCCOP1(=O)C=C(C)C(=C(Cl)Cl)C(C)=C1 (stereo unspecified) | 38.9 | > 32.9 | 32.9 | 21.8 | > 41.4 | 29.9 | 31.6 | 34.7 | 11.5 |  |  |  |  |  |  |  |  |  | 
2 | CC(=O)O[C@]12CCCC1C1(O)C(O)CCCC12 (stereo partly specified) |  | > 100 | > 100 | > 100 | > 100 | > 100 | > 100 | > 100 | > 100 |  |  |  |  |  |  |  |  |  | 
3 | CN(C)CCSC(=Nc1ccccc1)N1CCCCC1 | 31.5 | 29.8 | 31.2 | 30.4 | > 100 | 33 | 35.2 | 37.3 | 29.6 |  |  |  |  |  |  |  |  |  | 
4 | O=[Se](=O)c1ccccc1.O=[Se](=O)c1ccccc1.[Cu] | 40.5 | 34.9 | 15.2 | 18.9 | 62.7 | 39.2 | 31.7 | 30.1 | 30.4 | 18.9 | 19 | 5.95 | 6.82 | 7.98 | 17.2 | 16.8 | 13.5 | 16 | 
5 | Cc1cccc(NC(=O)C(=O)C(C(=O)c2ccccc2F)C2OC(=O)c3ccccc32)c1Cl (stereo unspecified) | > 100 | > 100 | > 100 | 85.4 | 83 | > 100 |  | 81.8 | > 100 |  |  |  |  |  |  |  |  |  | 
6 | O=C1c2c(nc3ccccc3c2-c2ccccc2)CN1Nc1ccccn1 | > 100 | > 100 | > 100 | > 100 | > 100 | > 100 | > 100 | > 100 | > 100 |  |  |  |  |  |  |  |  |  | > 100
7 | CCOC(=O)C(=Cc1ccc(C(=O)OC)cc1)C(=O)OCC | 4.46 | 4.64 | 10.2 | 5.47 | 4.71 | 18.1 | 3.52 | 3.36 |  |  |  |  |  |  |  |  |  |  | 
8 | Cc1cccc(C2=NC(C)(C)C(C)(C)N=C2c2cccc(C)n2)n1 | > 100 | > 100 | > 100 | > 100 | > 100 | > 100 | > 100 | > 100 | > 100 |  |  |  |  |  |  |  |  |  | 
9 | CSc1c(C#N)c(=O)[nH]c2n[nH]c(C)c12 |  | > 100 |  | > 100 | > 100 | > 100 | > 100 | > 100 | > 100 |  |  |  |  |  |  |  |  |  | > 100
10 | COc1cc(/C=C2\N=C(c3ccccc3)N(c3nc4c(OC)ccc(OC)c4s3)C2=O)cc(OC)c1OC |  | > 100 |  | > 100 | > 100 | > 100 | > 100 | > 100 | > 100 |  |  |  |  |  |  |  |  |  | > 100
11 | O=C1COc2ccc([N+](=O)[O-])cc2C(=O)C1 |  | > 10 |  | > 10 | > 10 | > 10 | > 10 | > 10 | > 10 |  |  |  |  |  |  |  |  |  | > 10
12 | NC(=S)Nc1[nH]c(=S)nc2c1SC1=N/C(=C\c3ccco3)C(=O)N12 |  | > 100 |  | > 100 | > 85.4 | > 100 | > 83.3 | > 100 | > 100 |  |  |  |  |  |  |  |  |  | > 100
13 | C/C(=N\NC(N)=S)C(CN(CC(C)C)CC(C)C)C(=O)Nc1ccc(C)cc1C (stereo unspecified) | > 100 | > 100 | > 100 | > 100 | > 100 | > 100 | > 100 | > 100 | > 100 |  |  |  |  |  |  |  |  |  | 
14 | COc1cccc(Cc2c3cc(OC)ccc3cc[n+]2C)c1 | > 100 | 65.4 |  |  | > 100 | > 100 | > 100 | > 100 | 51.6 |  |  |  |  |  |  |  |  |  | 
15 | c1ccc2c(c1)nc(NC1CCCC1)c1[nH]c(C3CCCC3)nc12 | > 100 | 17.1 | 27.7 | 29.8 | 64.3 | 20.1 | 30.7 | 32.7 | 11.1 |  |  |  |  |  |  |  |  |  | 
